Experimental data published in US7868173B2, “Prodrugs of benzoquinolizine-2-carboxylic acid” (Wockhardt Limited, priority 2006, dated 2011).

Assays:
[1] = Solubility analysis: aqueous solubility in buffer at physiological pH; assay type: physicochemical; details: 25-30° C.
Procedure: Solubility analysis: Method for determining aqueous solubility at different physiological pH at 25-30° C. temperature: To accurately weighed amount of test substance, particular buffer solution was added in portion (about 50 microliter portions) at 25-30° C. temperature till solid is completely dissolved and clear solution is obtained.

[2] = rats, intravenous route; cited from earlier work
[3] = Pharmacokinetic (PK) study in Sprague Dawley rats, oral dose; assay type: in vivo; details: rat
Procedure: Method for pharmacokinetic (PK) study in Sprague Dawley rats: Pharmacokinetic study was conducted on male Sprague Dawley rats weighing 200-220 g fasted overnight. (2′S,5S)-9-fluoro-6,7-dihydro-8-(4-L-alaninyloxy-piperidin-1-yl)-5-methyl-1-oxo-1H,5H-benzo[i,j]-quinolizine-2-carboxylic acid methanesulfonic acid salt (A), (2′S,5S)-9-fluoro-6,7-dihydro-8-(4-L-alaninyloxy-piperidin-1-yl)-5-methyl-1-oxo-1H,5H-benzo[i,j]quinolizine-2-carboxylic acid hydrochloride salt (B) and (2′S,5S)-9-fluoro-6,7-dihydro-8-(4-L-valinyloxy-piperidin-1-yl)-5-methyl-1-oxo-1H,5H-benzo[i,j]quinolizine-2-carboxylic acid methanesulfonic acid salt (C) were dissolved in Milli Q water. Compounds A, B and C were administered at the dose of 50 mg/kg orally calculated on the basis of active ingredient. (5S)-9-fluoro -6,7-dihydro-8-(4-hydroxy-piperidin-1-yl)-5-methyl-1-oxo-1H,5H-benzo[i,j]quinolizine-2-carboxylic acid L-arginine salt (D) was dissolved in 1% Tween prior to use. Compounds A and D were administered at the dose of 200 mg/kg orally calculated on the basis of active ingredient. Dose volume was 0.5 ml/200g. Blood samples were collected at predetermined time intervals i.e. 0, 0.5, 1, 2, 4, 6 & 8 h in eppendorff vials containing 10 μl saturated solution of sodium fluoride. Plasma was collected after centrifugation of blood sample at 10000 rpm for 10 min. Plasma samples were analyzed on HPLC for determining drug levels. PK parameters AUC, Cmax were calculated by non-compartmental analysis by using Winnonlin software.

[4] = Oral bioavailability in animals; assay type: in vivo
[5] = repeated intravenous administration, injectable form; cited from earlier work
[6] = over the pH range 8.0-9.5 at 28° C.; cited from earlier work
[7] = as compared to B, 50 mg/kg per os dose
[8] = as compared to D, 200 mg/kg per os dose
[9] = as compared to D, 50 mg/kg per os dose

Compound: C[C@H](N)C(=O)OC1CCN(c2c(F)cc3c(=O)c(C(=O)O)cn4c3c2CC[C@@H]4C)CC1.Cl
- Solubility (mg/ml) at pH 7 [1]: 4 mg/ml

Compound: CC(C)[C@H](N)C(=O)OC1CCN(c2c(F)cc3c(=O)c(C(=O)O)cn4c3c2CC[C@@H]4C)CC1.CS(=O)(=O)O
- Solubility (mg/ml) at pH 7 [1]: >200 mg/ml

Compound: CC(C)[C@H](N)C(=O)OC1CCN(c2c(F)cc3c(=O)c(C(=O)O)cn4c3c2CC[C@@H]4C)CC1 [(2′S,5S)-9-fluoro-6,7-dihydro-8-(4-L-valinyloxy-piperidin-1-yl)-5-methyl-1-oxo-1H,5H-benzo[i,j]quinolizine-2-carboxylic acid, reference compound]
- Solubility (mg/ml) at pH 7 [1]: <1 mg/ml

Compound: C[C@H]1CCc2c(N3CCC(O)CC3)c(F)cc3c(=O)c(C(=O)O)cn1c23.N=C(N)NCCC[C@H](N)C(=O)O [(5S)-9-fluoro-6,7-dihydro-8-(4-hydroxy-piperidin-1-yl)-5-methyl-1-oxo-1H,5H-benzo[i,j]quinolizine-2-carboxylic acid L-arginine salt]
- propensity to cause phlebitis [2]: lower propensity to cause phlebitis

Compound: CS(=O)(=O)O.C[C@H](N)C(=O)OC1CCN(c2c(F)cc3c(=O)c(C(=O)O)cn4c3c2CC[C@@H]4C)CC1 [A, (2′S,5S)-9-fluoro-6,7-dihydro-8-(4-L-alaninyloxy-piperidin-1-yl)-5-methyl-1-oxo-1H,5H-benzo[i,j]-quinolizine-2-carboxylic acid methanesulfonic acid salt]
- Solubility (mg/ml) at pH 7 [1]: >200 mg/ml
- % Increase in AUC [3, 7]: 175%
- % Increase in Cmax [3, 7]: 300%
- % Increase in AUC [3, 8]: 120%
- % Increase in Cmax [3, 8]: 200%

Compound: CC(C)[C@H](N)C(=O)OC1CCN(c2c(F)cc3c(=O)c(C(=O)O)cn4c3c2CC[C@@H]4C)CC1.CS(=O)(=O)O [C, (2′S,5S)-9-fluoro-6,7-dihydro-8-(4-L-valinyloxy-piperidin-1-yl)-5-methyl-1-oxo-1H,5H-benzo[i,j]quinolizine-2-carboxylic acid methanesulfonic acid salt]
- % Increase in AUC [3, 9]: 92%
- % Increase in Cmax [3, 9]: 97%

Compound: C[C@H]1CCc2c(N3CCC(O)CC3)c(F)cc3c(=O)c(C(=O)O)cn1c23.N=C(N)NCCC[C@H](N)C(=O)O.O.O.O.O [S-(−)-9-fluoro-6,7-dihydro-8-(4-hydroxypiperidin-1-yl)-5-methyl-1-oxo-1H,5H-benzo[i,j]quinolizine-2-carboxylic acid L-arginine salt tetrahydrate]
- oral bioavailability [4]: poor
- venous inflammation [5]: not causing venous inflammation

Compound: C[C@H]1CCc2c(N3CCC(O)CC3)c(F)cc3c(=O)c(C(=O)[O-])cn1c23.[Na+] [S-(−)-9-fluoro-6,7-dihydro-8-(4-hydroxypiperidin-1-yl)-5-methyl-1-oxo-1H,5H-benzo[i,j]quinolizine-2-carboxylic acid sodium salt]
- propensity to cause phlebitis [2]: high propensity to cause phlebitis

Compound: S-(−)-9-fluoro-6,7-dihydro-8-(4-hydroxypiperidin-1-yl)-5-methyl-1-oxo-1H,5H-benzo[i,j]quinolizine-2-carboxylic acid
- Solubility (mg/ml) at pH 7 [1]: <1 mg/ml
- oral bioavailability [4]: poor
- aqueous solubility [6]: 800 to 2000 µg/mL
